According to PMC11655885, “Structural mechanism of CB1R binding to peripheral and biased inverse agonists” (Nature Communications, 2024):
Values joined by “and” are separate entries in the source; they are usually repeats but may differ in a detail not shown here. Identical values can stand only once.

Key:
hCB1R = target: T1, hCB1R (Homo sapiens, UniProt P21554); assay: Inhibition of CP55,940-induced [35S]GTPγS binding in hCB1R-CHO-K1 cell membranes; type: biochemical; details: for [35S]GTPγS binding, % basal response / [35S]GTPγS binding, cpm values: averages of Experiments 1-4, listed as S-MRI-1867
T1 construct: purchased Revvity ES-110-M400UA; host or cells: CHO-K1 (recombinant hCB1R), membranes
T1 sequence (P21554 whole entry): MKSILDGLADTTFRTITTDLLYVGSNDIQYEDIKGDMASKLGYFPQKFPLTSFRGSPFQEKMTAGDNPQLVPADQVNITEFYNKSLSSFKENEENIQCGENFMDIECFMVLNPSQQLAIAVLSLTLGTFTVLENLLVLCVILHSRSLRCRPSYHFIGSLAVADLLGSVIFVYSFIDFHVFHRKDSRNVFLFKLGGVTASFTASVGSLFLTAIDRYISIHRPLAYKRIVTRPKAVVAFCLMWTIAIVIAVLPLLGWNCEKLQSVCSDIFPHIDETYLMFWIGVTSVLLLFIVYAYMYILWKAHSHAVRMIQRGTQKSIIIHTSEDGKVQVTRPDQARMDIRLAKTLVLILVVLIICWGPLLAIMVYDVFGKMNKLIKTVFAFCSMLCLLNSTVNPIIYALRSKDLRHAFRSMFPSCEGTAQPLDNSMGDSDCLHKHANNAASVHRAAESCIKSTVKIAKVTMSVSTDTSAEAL
Procedure: The inhibitory potencies of the antagonists in G protein signaling were measured as described previously. […] GTPγS binding at the ~EC80 level. hCB1R-CHO-K1 cell membrane (4 μg) (Revvity, ES-110-M400UA) was incubated with 0.05 nM [^35S]GTPγS (Revvity) and the indicated concentrations of ligands in TEM buffer (50 mM Tris-HCl, 0.2 mM EGTA, and 9 mM MgCl2, pH 7.4) containing 100 µM GDP, 150 mM NaCl, and 0.1% (w/v) bovine serum albumin in a total volume of 1 ml for 60 min at 30 °C. […] Agonist-stimulated [^35S]GTPγS binding was expressed as the percent of increase over baseline. Bound and free [^35S]GTPγS levels were separated by vacuum filtration through Whatman GF/B filters using a Brandel M24 Cell Harvester (Gaithersburg, MD). Filters were washed with 3 × 5-ml of ice-cold buffer, and radioactivity was detected by scintillation spectrometry (LS6500; Beckman Coulter). Dose-response curves were generated in the presence of increasing concentrations of antagonists. Concentration-response relationships were analyzed by fitting the data to the three-parameter model ‘log(agonist) vs response’ in GraphPad Prism 10.

hCNR1 = target: T2, hCNR1 (Homo sapiens, UniProt P21554); assay: Inhibition of CP55,940-induced β-arrestin-2 recruitment, PathHunter eXpress CNR1 CHO-K1 assay; type: cell-based; details: for β-arrestin-2 recruitment, % basal response / β-arrestin-2 recruitment, lum values: averages of single experiments, listed as S-MRI-1867
T2 construct: host or cells: CHO-K1 (PathHunter eXpress CNR1 β-arrestin-2, purchased recombinant cell line)
T2 sequence (P21554 whole entry): as above
Procedure: The inhibitory potencies of the antagonists in β-arrestin-2 signaling was measured using the DiscoverX β-arrestin-2 recruitment assay for hCNR1 (Eurofins, catalog # 93-0959E2CP). The assay was performed following supplier’s instructions. […] Concentration-response relationships were analyzed by fitting the data to the three-parameter model ‘log(agonist) vs response’ in GraphPad Prism 10.

[1] = 300 nM CP55,940 + 0.001 nM antagonist
[2] = 300 nM CP55,940 + 0.01 nM antagonist
[3] = 300 nM CP55,940 + 0.1 nM antagonist
[4] = 300 nM CP55,940 + 1 nM antagonist
[5] = 300 nM CP55,940 + 10 nM antagonist
[6] = 300 nM CP55,940 + 100 nM antagonist
[7] = 300 nM CP55,940 + 1000 nM antagonist
[8] = 25 nM CP55,940 + 0.001 nM antagonist
[9] = 25 nM CP55,940 + 0.01 nM antagonist
[10] = 25 nM CP55,940 + 0.1 nM antagonist
[11] = 25 nM CP55,940 + 0.3 nM antagonist
[12] = 25 nM CP55,940 + 1 nM antagonist
[13] = 25 nM CP55,940 + 3 nM antagonist
[14] = 25 nM CP55,940 + 10 nM antagonist
[15] = 25 nM CP55,940 + 30 nM antagonist
[16] = 25 nM CP55,940 + 100 nM antagonist
[17] = 25 nM CP55,940 + 300 nM antagonist
[18] = 25 nM CP55,940 + 1000 nM antagonist

For `C/C(N)=N\C(=N/S(=O)(=O)c1ccc(C(F)(F)F)cc1)N1C[C@H](c2ccccc2)C(c2ccc(Cl)cc2)=N1` [MRI-1867], the “[35S]GTPγS binding, normalized % response, MEAN” value (hCB1R; [1]) was 100%, the “[35S]GTPγS binding, % basal response” value (hCB1R; [1]) was 290% and 251% and 295% and 282% and the “[35S]GTPγS binding, cpm values” (hCB1R; [1]) was 1594 cpm and 1615 cpm. The “[35S]GTPγS binding, normalized % response, MEAN” value (hCB1R; [2]) was 103%, the “[35S]GTPγS binding, % basal response” value (hCB1R; [2]) was 299% and 260% and 293% and 288% and the “[35S]GTPγS binding, cpm values” (hCB1R; [2]) was 1631 cpm and 1642 cpm and 1604 cpm and 1643 cpm. The “[35S]GTPγS binding, normalized % response, MEAN” value (hCB1R; [3]) was 104%, the “[35S]GTPγS binding, % basal response” value (hCB1R; [3]) was 295% and 268% and 298% and 291% and the “[35S]GTPγS binding, cpm values” (hCB1R; [3]) was 1615 cpm and 1679 cpm and 1625 cpm and 1656 cpm. The “[35S]GTPγS binding, normalized % response, MEAN” value (hCB1R; [4]) was 93%, the “[35S]GTPγS binding, % basal response” value (hCB1R; [4]) was 284% and 248% and 259% and 273% and the “[35S]GTPγS binding, cpm values” (hCB1R; [4]) was 1566 cpm and 1581 cpm and 1462 cpm and 1577 cpm. The “[35S]GTPγS binding, normalized % response, MEAN” value (hCB1R; [5]) was 70%, the “[35S]GTPγS binding, % basal response” value (hCB1R; [5]) was 235% and 198% and 224% and 228% and the “[35S]GTPγS binding, cpm values” (hCB1R; [5]) was 1358 cpm and 1331 cpm and 1312 cpm and 1377 cpm. The “[35S]GTPγS binding, normalized % response, MEAN” value (hCB1R; [6]) was 29%, the “[35S]GTPγS binding, % basal response” value (hCB1R; [6]) was 146% and 141% and 155% and 131% and the “[35S]GTPγS binding, cpm values” (hCB1R; [6]) was 973 cpm and 1046 cpm and 1021 cpm and 947 cpm. The “[35S]GTPγS binding, normalized % response, MEAN” value (hCB1R; [7]) was 0%, the “[35S]GTPγS binding, % basal response” value (hCB1R; [7]) was 92% and 76% and 93% and 86% and the “[35S]GTPγS binding, cpm values” (hCB1R; [7]) was 742 cpm and 722 cpm and 759 cpm and 747 cpm. The IC50 (hCB1R; 300 nM CP-55,940, hCB1R-CHO-K1 cell membranes, read-out: IC50 ± S.E.M. [35S]GTPγS binding) was 0.028 ± 0.0015 µM, the “β-arrestin-2 recruitment, normalized % response, MEAN” value (hCNR1; [8]) was 100% and the “β-arrestin-2 recruitment, % basal response” value (hCNR1; [8]) was 422% and 598% and 458% and 350%. The “β-arrestin-2 recruitment, lum values” (hCNR1; [8]) was 15361 lum and 21612 lum and 16563 lum and 12404 lum, the “β-arrestin-2 recruitment, normalized % response, MEAN” value (hCNR1; [9]) was 101% and the “β-arrestin-2 recruitment, % basal response” value (hCNR1; [9]) was 416% and 542% and 524% and 349%. The “β-arrestin-2 recruitment, lum values” (hCNR1; [9]) was 15142 lum and 19591 lum and 18948 lum and 12375 lum, the “β-arrestin-2 recruitment, normalized % response, MEAN” value (hCNR1; [10]) was 105% and the “β-arrestin-2 recruitment, % basal response” value (hCNR1; [10]) was 408% and 586% and 562% and 342%. The “β-arrestin-2 recruitment, lum values” (hCNR1; [10]) was 14843 lum and 21209 lum and 20344 lum and 12137 lum, the “β-arrestin-2 recruitment, normalized % response, MEAN” value (hCNR1; [11]) was 110% and the “β-arrestin-2 recruitment, % basal response” value (hCNR1; [11]) was 444% and 560% and 594% and 359%. For the same compound, the “β-arrestin-2 recruitment, lum values” (hCNR1; [11]) was 16156 lum and 20271 lum and 21487 lum and 12718 lum, the “β-arrestin-2 recruitment, normalized % response, MEAN” value (hCNR1; [12]) was 102% and the “β-arrestin-2 recruitment, % basal response” value (hCNR1; [12]) was 412% and 538% and 543% and 345%. The “β-arrestin-2 recruitment, lum values” (hCNR1; [12]) was 15011 lum and 19443 lum and 19638 lum and 12234 lum, the “β-arrestin-2 recruitment, normalized % response, MEAN” value (hCNR1; [13]) was 71% and the “β-arrestin-2 recruitment, % basal response” value (hCNR1; [13]) was 355% and 425% and 371% and 250%. The “β-arrestin-2 recruitment, lum values” (hCNR1; [13]) was 12924 lum and 15375 lum and 13421 lum and 8857 lum, the “β-arrestin-2 recruitment, normalized % response, MEAN” value (hCNR1; [14]) was 24% and the “β-arrestin-2 recruitment, % basal response” value (hCNR1; [14]) was 162% and 213% and 215% and 121%. For the same compound, the “β-arrestin-2 recruitment, lum values” (hCNR1; [14]) was 5897 lum and 7687 lum and 7765 lum and 4277 lum, the “β-arrestin-2 recruitment, normalized % response, MEAN” value (hCNR1; [15]) was 10% and the “β-arrestin-2 recruitment, % basal response” value (hCNR1; [15]) was 113% and 143% and 144% and 91%. The “β-arrestin-2 recruitment, lum values” (hCNR1; [15]) was 4118 lum and 5161 lum and 5210 lum and 3224 lum, the “β-arrestin-2 recruitment, normalized % response, MEAN” value (hCNR1; [16]) was 4.5% and the “β-arrestin-2 recruitment, % basal response” value (hCNR1; [16]) was 94% and 126% and 124% and 74%. For the same compound, the “β-arrestin-2 recruitment, lum values” (hCNR1; [16]) was 3418 lum and 4556 lum and 4497 lum and 2623 lum, the “β-arrestin-2 recruitment, normalized % response, MEAN” value (hCNR1; [17]) was 3.5% and the “β-arrestin-2 recruitment, % basal response” value (hCNR1; [17]) was 79% and 121% and 133% and 72%. The “β-arrestin-2 recruitment, lum values” (hCNR1; [17]) was 2866 lum and 4366 lum and 4803 lum and 2549 lum, the “β-arrestin-2 recruitment, normalized % response, MEAN” value (hCNR1; [18]) was 0% and the “β-arrestin-2 recruitment, % basal response” value (hCNR1; [18]) was 98% and 84% and 76% and 78%. The “β-arrestin-2 recruitment, lum values” (hCNR1; [18]) was 3584 lum and 3036 lum and 2733 lum and 2778 lum, the IC50 (hCNR1; CP55,940 at ~EC80, read-out: IC50 ± S.E.M. β-arrestin2 recruitment) was 0.0056 ± 0.0007 µM and the “bias: difference in IC50, G protein ([35S]GTPγS) versus β-arrestin2” value (hCNR1; human CB1R-containing cell membranes) was 5 fold.
